# Measured values published in PMC8060220, “Comparative study of hyperpure chlorine dioxide with two other irrigants regarding the viability of periodontal ligament stem cells” (Clinical Oral Investigations, 2020).
# Marks after values point to notes of the source that are not given here.
# Assays:
# PDLSCs [1] = assay: WST-1 test, concentration-response study; assay type: cell-based, human; settings: 48-h incubation, 50% viable cells
# Method: (§1) To evaluate the concentration-dependent effects of the 3 antiseptic agents (H2O2, CHX, and ClO2), 9 different dilutions of each agent were prepared with growth medium (from 3.91 × 10^−6 to 10^−3 M, by 1:2 dilution in each step). As ClO2 is photosensitive and volatile, its dilution series were made in dark Eppendorf tubes which were opened only for the inevitably required time. After a 48-h-long incubation, cell viability was assessed by WST-1 test and impedimetric measurement, respectively (see below). The […] (IC50) values corresponding to the 50% viable cells or 0.5 normalized CI were determined from the concentration-effect curves in the case of the two methods, respectively.
# (§2) This assay is dedicated to measuring the viability of PDLSCs. In 96-well culture plates, 10,000 PDLSCs were seeded. After 24 h, samples were treated with the irrigative compounds, and final concentrations were H2O2 0.3%, CHX 0.02%, and ClO2 0.0025% and 0.00025% solutions in 4-4 parallel wells. After 10 min, all the irrigative agents were removed and the samples were washed three times with normal growth medium, simulating the diluting effect of saliva in the oral cavity during the periodontal treatments. Forty-eight hours after the treatments, the cell viability was measured by the cell proliferation reagent containing water-soluble tetrazolium salt, WST-1 [2-(4-Iodophenyl)-3-(4-nitrophenyl)-5-(2,4-disulfophenyl)-2H-tetrazolium] (Roche). This assay determines mitochondrial dehydrogenase enzyme activity resulting water-soluble cleavage product. The WST-1 reagent was used at 1:20 dilution and incubation time was 2 h at 37 °C. Absorbance was measured at 450 nm with a reference wavelength of 655 nm by a microplate reader (BIO-RAD Model 3550). Background control values were determined in wells seeded with no cells. Each value represents the average of minimum 3 parallel measurements.
# PDLSCs [2] = assay: Impedimetry (xCELLigence), concentration-response study; assay type: cell-based, human; settings: 48-h incubation, 0.5 normalized CI
# Method: as §1
# The effect of irrigative agents on the viability of the PDLSC cells was assessed using the xCELLigence SP System (Roche Applied Science, Indianapolis, IN, USA), which monitors the cellular events by measuring electrical impedance across interdigitating gold microelectrodes integrated on the bottom of tissue culture plates (E-plates). The detected impedance is influenced by the viability and morphology of the attached cells on the surface of the electrodes. The presence of cells due to their insulating plasma membranes constrain the electrical current and lead to an increase in the electrode impedance. The impedance depends on the number of the attached cells and on the dimensional change of the attached cells on the electrodes. More cells attached to the electrode or spreading cause a larger increase in the impedance. The change in impedances represented as “cell index” (CI) which is a relative and dimensionless value. Briefly, the experimental protocol was as follows: to register the background value, 100 μL of culture medium was added to each well and impedance was recorded for 1 h to gain constant background curves of impedance. […] The viability of the PDLSC was monitored for 96 h. Normalized impedance to the control calculated by the integrated software (RTCA 1.2—Roche Applied Science, Indianapolis, IN, USA) was used for the statistical evaluation. […]
# PDLSCs [3] = assay: Impedimetry (xCELLigence), 10 min treatment, time course and viability; assay type: cell-based, human; settings: for long-term (2–120 h) effect on normalized CI / short-term (0–2 h) effect on normalized CI: 0.0025% and 0.00025% ClO2, 10 min treatment; for repopulation in long-term impedimetric analysis: 5-day-long period after treatment; for normalized Cell Index (CI) two days after the treatment: 37 °C; for viability of PDLSC cultures, impedimetry: 48 h; for cells killed during the first 30 min: ClO2 depending on the concentration applied (0.0025%, 0.00025%)
# Method: The effect of irrigative agents on the viability of the PDLSC cells was assessed using the xCELLigence SP System (Roche Applied Science, Indianapolis, IN, USA), which monitors the cellular events by measuring electrical impedance across interdigitating gold microelectrodes integrated on the bottom of tissue culture plates (E-plates). The detected impedance is influenced by the viability and morphology of the attached cells on the surface of the electrodes. The presence of cells due to their insulating plasma membranes constrain the electrical current and lead to an increase in the electrode impedance. The impedance depends on the number of the attached cells and on the dimensional change of the attached cells on the electrodes. More cells attached to the electrode or spreading cause a larger increase in the impedance. The change in impedances represented as “cell index” (CI) which is a relative and dimensionless value. Briefly, the experimental protocol was as follows: to register the background value, 100 μL of culture medium was added to each well and impedance was recorded for 1 h to gain constant background curves of impedance. In the following step, PDLSCs were seeded in 10^5 cells/mL density. After 24-h incubation, they were treated with the solutions of the investigated irrigative compounds (H2O2, CHX, and ClO2) for 10 min and the medium served as reference. […] Normalized impedance to the control calculated by the integrated software (RTCA 1.2—Roche Applied Science, Indianapolis, IN, USA) was used for the statistical evaluation. Each data point represents the mathematical average of three parallels.
# PDLSCs [4] = assay: WST-1 viability assay, 10 min treatment; assay type: cell-based, human; settings: P3 and P7, 48 h
# Method: as §2
# PDLSC cultures = assay: Morphological study, phase-contrast microscopy; assay type: cell-based, human; settings: for cell morphology and cell number under phase-contrast microscope: 48 h after treatment, 0.3% H2O2, 0.02% CHX, 0.0025% or 0.00025% ClO2
# Excerpt: Cellular morphology was observed under an inverted phase-contrast microscope (Nikon TMS). Photomicrographs were taken applying a high-performance CCD camera (COHU) and the Scion image software.
# STRO-1 = assay: Immunocytochemistry of stem cell marker STRO-1; assay type: cell-based, human; settings: 48 h
# Method: (§3) PDLSC cultures grown in 8 chamber slides (Nunc Lab-Tek) were treated with the antiseptic agents similar to the viability studies. After 48 h, treated and untreated cell cultures were fixed in 4% PFA in PBS for 20 min at room temperature (RT). To block non-specific binding, 5% goat serum in PBS was applied for 1 h at RT. Then cell cultures were incubated with the primary antibodies diluted 1:100 with 2.5% goat serum in PBS overnight at 4 °C. The applied primary antibodies were the following: anti-STRO-1 antibody (type mouse IgM)—a generous gift from Prof. Richard Oreffo (University of Southampton, UK); anti-CD90 (Thy-1; type mouse IgG) and the anti-CD105 (endoglin; type mouse IgM) antibodies purchased from Calbiochem and Santa Cruz Biotechnology, respectively. Goat anti-mouse IgM and IgG type secondary antibodies conjugated with Alexa Fluor 488 (Molecular Probes) were diluted with 2.5% goat serum in PBS in 1:2000 and 1:1000 respectively. The incubation time was 60 min at RT. Finally, the walls of the chambers were removed and the slides were mounted with ProLong Gold antifade reagent with DAPI (Molecular Probes). Immunocytochemically labeled cell cultures were investigated under a fluorescence microscope (Nikon Eclipse E600), the photos were taken by a Retiga 2000R digital CCD camera (QImaging), and analyzed by the Image Pro software (Media Cybernetics). Free macros for automated fluorescence analysis of image processing software FIJI/ImageJ were applied to evaluate immunostaining of stem cell markers. Each test point represents 3 × 3 reading of the samples.
# CD90 = assay: Immunocytochemistry of stem cell marker CD90; assay type: cell-based, human; settings: 48 h
# Method: as §3
# CD105 = assay: Immunocytochemistry of stem cell marker CD105; assay type: cell-based, human; settings: 48 h
# Method: as §3
# [5] = test system: human gingival fibroblasts; design: method as in PMID 1962413; settings: cited from earlier work
# bacteria = test system: bacteria; design: method as in PMID 24060558, PMID 23529300; settings: direct antibacterial and biofilm-dissolving effects; cited from earlier work
# Escherichia coli = test system: Escherichia coli; design: method as in ref 1 (supplement); settings: 1 µm diameter cylindrical bacterium; c0 = 300 mg/L (4.45 mM); formula (C), pig bladder parameters; ref 1 (supplement); cited from earlier work
# [6] = design: method as in ref S1; settings: ref S1, cited from earlier work
# equine fibroblasts = settings: cited from earlier work
# [7] = long incubation time; cited from earlier work
# gingival fibroblasts [8] = test system: gingival fibroblasts; design: method as in PMID 10632519; settings: cited from earlier work
# gingival fibroblasts [9] = test system: gingival fibroblasts; design: method as in PMID 1920010; settings: exposure of dental root surfaces to CHX (0.12%); cited from earlier work
# PDL cells = test system: PDL cells; design: method as in PMID 1507037; settings: 0.2 to 2.0% CHX pretreatment of the root surface; cited from earlier work
# [10] = impedimetric results, 0.02% CHX
# [11] = 0.3% H2O2, 0.02% CHX, higher ClO2 concentration (0.0025%)
# [12] = P3, 0.02% CHX, 0.0025% (1/1) ClO2
# [13] = P7, 0.02% CHX, 0.0025% (1/1) ClO2
# [14] = P3 and P7, 0.3% H2O2, 0.02% CHX
Structure (SMILES),IC50 (PDLSCs [1]) [µM],IC50 (PDLSCs [2]) [µM],"long-term (2–120 h) effect on normalized CI (PDLSCs [3]; 0.3% H2O2, 0.02% CHX)","short-term (0–2 h) effect on normalized CI (PDLSCs [3]; 0.3% H2O2, 0.02% CHX)",repopulation in long-term impedimetric analysis (PDLSCs [3]),cells killed during the first 30 min (PDLSCs [3]; [10]),"viability of PDLSC cultures, WST-1 (PDLSCs [4]; [11])",cell morphology and cell number under phase-contrast microscope (PDLSC cultures),STRO-1 Fluo. int. [%] Control = 100% (STRO-1; [12]),STRO-1 Fluo. int. [%] Control = 100% (STRO-1; [13]),CD90 Fluo. int. [%] Control = 100% (CD90; [12]),CD90 Fluo. int. [%] Control = 100% (CD90; [13]),CD105 Fluo. int. [%] Control = 100% (CD105; [12]),CD105 Fluo. int. [%] Control = 100% (CD105; [13]),"viability of PDLSC cultures, impedimetry (PDLSCs [3]; [14])",other results
"[O][Cl+][O-] [ClO2, chlorine dioxide]",638,795,consistent increase of the curves,significantly less toxic compared to the other two antiseptic substances,proliferation of the remaining cell population can compensate cell loss,20–30%,no effect,did not provoke morphological changes,216.52*** %,120.43* %,83.07%,97.74%,213.90*** %,55.46*** %,,"normalized Cell Index (CI) two days after the treatment (PDLSCs [3]; 10 minute treatment in 2.5 mg/l ClO2 solution): ≈ 0.8; normalized Cell Index (CI) two days after the treatment (PDLSCs [3]; 10 minute treatment in 25 mg/l ClO2 solution): about 0.5; viability of PDLSC cultures, impedimetry (PDLSCs [3]; P3, higher ClO2 concentration (0.0025%)): significant inhibitory effect; viability of PDLSC cultures, impedimetry (PDLSCs [3]; P3 and P7, lower ClO2 concentration (0.00025%)): unequivocally neutral; viability of PDLSC cultures, WST-1 (PDLSCs [4]; lower ClO2 concentration (0.00025%)): unequivocally neutral; STRO-1 Fluo. int. [%] Control = 100% (STRO-1; P3, 0.00025% (1/10) ClO2): 145.78** %; STRO-1 Fluo. int. [%] Control = 100% (STRO-1; P7, 0.00025% (1/10) ClO2): 114.69%; CD90 Fluo. int. [%] Control = 100% (CD90; P3, 0.00025% (1/10) ClO2): 159.23** %; CD90 Fluo. int. [%] Control = 100% (CD90; P7, 0.00025% (1/10) ClO2): 54.92*** %; CD105 Fluo. int. [%] Control = 100% (CD105; P3, 0.00025% (1/10) ClO2): 127.80* %; CD105 Fluo. int. [%] Control = 100% (CD105; P7, 0.00025% (1/10) ClO2): 15.74*** %; LD50 ([5]; human gingival fibroblasts): 0.16 mM; apoptotic responses ([5]; low concentrations of ClO2): did not induce apoptotic responses; times lower concentration of ClO2 needed to evoke the same or even stronger effect than that of CHX (bacteria): approximately 10 times; killing time (TKILL) (Escherichia coli): 4.4 ms; diffusion coefficient D(pig bladder) ([6]; cellular pig bladder tissue): 1.8×10^–6 cm^2s^–1; diffusion coefficient D(gelatine) ([6]; unstructured gelatine gel medium): 2.4×10^–6 cm^2s^–1; toxicity compared with CHX (equine fibroblasts; equine fibroblasts): less toxic to equine fibroblasts than CHX"
"OO [H2O2, hydrogen peroxide]",209,327,retained their short-term cytotoxic effects,rapid decrease of normalized CI profile,,,complete lack of any viable cells,number of cells dramatically decreased,,,,,,,complete lack of any viable cells,"time to kill all the cells (PDLSCs [3]; impedimetric results, 0.3% H2O2): ≤ 1 min; state of cultures at fixation for immunocytochemistry (PDLSC cultures; 48 h after treatment with H2O2): all the cells were dead and detached from the slide; concentrations at which in vitro sporicide effects are evident [7]: 10–30%"
"[H]/N=C(\N/C(=N/[H])NCCCCCCNC(=N)NC(=N)Nc1ccc(Cl)cc1)Nc1ccc(Cl)cc1 [CHX, chlorhexidine]",16.6,,retained their short-term cytotoxic effects,rapid decrease of normalized CI profile,no sign of repopulation,about 70%,significantly deteriorating effects,number of cells dramatically decreased,130.52* %,86.02%,199.23*** %,30.98*** %,218.18*** %,104.81%,significantly deteriorating effects,"IC50 (PDLSCs [1]; Homo sapiens, 48 h): 29.5 µM; IC50 (PDLSCs [2]; Homo sapiens, 48 h): 36.4 µM; cells killed in 5 min (PDLSCs [3]; [10]): 50%; low concentration shown to be toxic, reducing production of collagen and non-collagen proteins (gingival fibroblasts [8]): 0.0001%; subsequent attachment of gingival fibroblasts (gingival fibroblasts [9]): significantly inhibited; attachment of PDL cells onto the root surface and their morphology (PDL cells): adversely altered; concentration with 50% of survival (equine fibroblasts): 0.005%"
